This note sets out measurements from patent US20240182465A1 (GENFLEET THERAPEUTICS (SHANGHAI) INC., priority 2021, published 2024).

Structures can show the parent of a compound that is named as a salt.

For assay [1], the target named is T1, HPK1 (Homo sapiens, UniProt Q92918).
T1 sequence (Q92918 1-346 limits assumed): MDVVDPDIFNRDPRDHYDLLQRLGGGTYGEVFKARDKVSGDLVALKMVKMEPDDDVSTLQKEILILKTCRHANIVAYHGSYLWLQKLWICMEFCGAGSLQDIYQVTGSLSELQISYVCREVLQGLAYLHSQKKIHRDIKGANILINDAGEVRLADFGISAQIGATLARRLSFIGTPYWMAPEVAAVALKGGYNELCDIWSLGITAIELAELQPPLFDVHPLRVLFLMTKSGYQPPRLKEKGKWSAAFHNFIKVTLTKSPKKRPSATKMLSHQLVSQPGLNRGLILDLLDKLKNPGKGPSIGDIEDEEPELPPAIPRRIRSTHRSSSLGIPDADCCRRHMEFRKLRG
Description: HPK1 kinase activity assay (ADP-Glo). Conditions: HPK1 Kinase activity IC50 (nM), 1 nM HPK1, 10 μM ATP, 0.1 μg/μL MBP. On the technique in general: In ADP-Glo the light output rises with the ADP produced.
Description: Preparation of buffer: 1× reaction buffer (40 mM Tris-HCl, 20 mM MgCl2, 0.01% Brij35, 50 μM DTT, 0.1 mg/ml BSA) was prepared using sterile water, which was prepared and used on the day of the experiment.
Preparation of 1000× drug stock plate: a 1000× compound stock plate was prepared. […] The compound stock plate was sealed with a sealing film and stored in a −20° C. refrigerator for later use.
Compound preparation and dosing: the 1000× drug stock plate was taken and melted at room temperature in the dark. Then 5× drug intermediate plate was prepared using reaction buffer and mixed well. 2 μL was transferred from the 5× drug intermediate plate into a 384-well plate, and negative control well and positive control well (in which 2 μL reaction buffer containing 0.5% DMSO was added) were set. Each point was repeated twice.
Preparation and incubation of reaction mixture: HPK1 protein was diluted to a 2.5× working solution with reaction buffer. 4 μL 2.5×HPK1 protein was added to each well containing test compound and positive control well, and 4 μL of reaction buffer without HPK1 protein was added to the negative control well. The obtained mixture was centrifuged at 1000 rpm for 1 min and then incubated in a 20° C. incubator for 15 min. A 2.5× mixed working solution of MBP protein and ATP was prepared with reaction buffer at concentrations of 0.5 μg/μL and 50 PM, respectively. 4 μL of the mixed working solution of MBP and ATP was added to each well, centrifuged at 1000 rpm for 1 min, and then incubated in a 20° C. incubator for 90 min.
ADP-Glo detection and reading plate: 10 μl ADP-Glo was added to each well of the test plate. The resulting mixture was centrifuged at 1000 rpm for 1 min and incubated in a 20° C. incubator for 60 min. Then 10 μL of the final incubation solution was transferred from the test plate to a new 384-well plate. 10 μL of kinase detection reagent was added to each well, centrifuged at 400 g for 1 min, and incubated in a 20° C. incubator for 60 min. Chemiluminescent signals were read by a microplate reader.

For assay [2], the target named is HPK1 (Homo sapiens, UniProt Q92918). Description: SLP76 phosphorylation assay (intracellular HPK1 inhibitory activity, p-SLP76 Ser376 sandwich ELISA). Conditions: p-SLP76 IC50(nM), Jurkat, Clone E6-1 cells; 1 h compound pre-incubation, anti-CD3 beads stimulation 20 min; SLP76 phosphorylation at S376. In general terms: An ELISA detects its analyte on a solid surface through an enzyme-linked reagent.
Target sequence in this assay (Q92918 whole entry): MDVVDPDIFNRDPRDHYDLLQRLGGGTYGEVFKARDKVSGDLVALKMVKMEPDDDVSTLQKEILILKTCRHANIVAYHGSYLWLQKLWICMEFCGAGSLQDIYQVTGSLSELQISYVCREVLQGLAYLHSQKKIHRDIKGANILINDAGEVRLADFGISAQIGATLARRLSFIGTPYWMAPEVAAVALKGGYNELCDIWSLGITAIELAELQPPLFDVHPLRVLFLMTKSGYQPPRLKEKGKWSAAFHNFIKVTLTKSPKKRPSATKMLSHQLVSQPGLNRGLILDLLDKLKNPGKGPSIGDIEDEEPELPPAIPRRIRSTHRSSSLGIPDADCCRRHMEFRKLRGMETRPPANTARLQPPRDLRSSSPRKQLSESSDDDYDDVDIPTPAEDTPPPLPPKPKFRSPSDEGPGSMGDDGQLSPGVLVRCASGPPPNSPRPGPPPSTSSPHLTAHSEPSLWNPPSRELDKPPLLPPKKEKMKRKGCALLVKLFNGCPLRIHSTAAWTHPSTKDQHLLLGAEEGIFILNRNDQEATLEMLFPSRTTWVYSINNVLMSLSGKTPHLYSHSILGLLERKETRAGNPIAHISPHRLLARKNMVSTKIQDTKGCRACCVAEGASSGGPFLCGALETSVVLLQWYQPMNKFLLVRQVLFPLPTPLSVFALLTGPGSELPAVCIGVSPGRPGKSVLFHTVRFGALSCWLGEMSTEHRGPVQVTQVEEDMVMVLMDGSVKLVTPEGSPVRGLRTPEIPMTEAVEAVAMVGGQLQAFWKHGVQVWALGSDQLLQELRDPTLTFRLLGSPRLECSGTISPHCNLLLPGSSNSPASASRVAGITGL

In general, IC50 refers to the midpoint of a concentration-inhibition curve. Turning to `Cc1c[nH]c2ncc(-c3cc4c(c([C@@H]5CCCN5)c3)CCN(C(=O)C3CCOCC3)C4)cc12` [Compound Z312, (S)-1-[7-(3-methyl-1H-pyrrolo[2,3-b]pyridin-5-yl)-5-[pyrrolidin-2-yl]-3,4-dihydroisoquinolin-2(1H)-yl](tetrahydro-2H-pyran-4-yl)methanone], the IC50 against HPK1 [1] turned out to be 0.47 nM; against HPK1 [2] it was 88.4 nM.
Take `CN(C)Cc1cc(-c2cnc3[nH]cc(C(=O)NCC4(CO)CCC4)c3c2)cc2c1COCC2` [Compound Z107, 5-(8-((dimethylamino)methyl)isochroman-6-yl)-N-((1-(hydroxymethyl)cyclobutyl)methyl)-1H-pyrrolo[2,3-b]pyridine-3-carboxamide]: the IC50 at HPK1 [1] turned out to be 5.79 nM; at HPK1 [2], 525 nM.
For the molecule `Cc1c[nH]c2ncc(-c3cc4c(c([C@@H]5CCCN5)c3)CCN(C(=O)[C@@H]3CCOC3)C4)cc12` [Compound Z293, (7-(3-methyl-1H-pyrrolo[2,3-b]pyridin-5-yl)-5-((S)-pyrrolidin-2-yl)-3,4-dihydroisoquinolin-2(1H)-yl) ((R)-tetrahydrofuran-3-yl)methanone], the IC50 was found to be 0.47 nM against HPK1 [1] and 113 nM on HPK1 [2].
In the case of `Cc1c[nH]c2ncc(-c3cc4c(c([C@@H]5CCCN5)c3)CN(C(=O)N3CCO[C@H](C)C3)CC4)cc12` [Compound Z359-2, (6-(3-methyl-1H-pyrrolo[2,3-b]pyridin-5-yl)-8-((S)-pyrrolidin-2-yl)-3,4-dihydroisoquinolin-2(1H)-yl) ((R)-2-methylmorpholin)methanone], the IC50 stood at 0.36 nM against HPK1 [1] and 98.1 nM on HPK1 [2].
As to `Cc1c[nH]c2ncc(-c3cc4c(c([C@@H]5CCCN5)c3)CCN(C(=O)C3CC3)C4)cc12` [Compound Z302, (S)-cyclopropyl (7-(3-methyl-1H-pyrrolo[2,3-b]pyridin-5-yl)-5-(pyrrolidin-2-yl)-3,4-dihydroisoquinolin-2(1H)-yl)methanone], the values for the IC50 against HPK1 [1] and on HPK1 [2] were 0.93 nM and 125 nM, respectively.
Turning to `Cc1ncc(C(=O)N2CCc3cc(-c4cnc5[nH]cc(C)c5c4)cc([C@@H]4CCCN4)c3C2)c(C(F)(F)F)n1` [Compound Z349, (S)-(6-(3-methyl-1H-pyrrolo[2,3-b]pyridin-5-yl)-8-(pyrrolidin-2-yl)-3,4-dihydroisoquinolin-2(1H)-yl) (2-methyl-4-(trifluoromethyl)pyrimidin-5-yl)methanone], the IC50 on HPK1 [1] turned out to be 0.47 nM; on HPK1 [2] it was 240 nM.
With `Cc1c[nH]c2ncc(-c3cc4c(c([C@@H]5CCCN5)c3)CN(C(=O)c3cc(C)n(C)n3)CC4)cc12` [Compound Z354], the IC50 against HPK1 [1] was determined as 1.02 nM; at HPK1 [2], 269 nM.
`C[C@](O)(C(=O)N1CCc2cc(-c3cnc4[nH]cc(Cl)c4c3)cc([C@@H]3CCCN3)c2C1)C(F)(F)F` [Compound Z405, (S)-1-(6-(3-chloro-1H-pyrrolo[2,3-b]pyridin-5-yl)-8-((S)-pyrrolidin-2-yl)-3,4-dihydroisoquinolin-2(1H)-yl)-3,3,3-trifluoro-2-hydroxy-2-methylpropan-1-one]: the figures for the IC50 against HPK1 [1] and against HPK1 [2] were 0.23 nM and 89.8 nM, respectively.
For the molecule `Cc1cc(C(=O)N2CCc3cc(-c4cnc5[nH]cc(C)c5c4)cc([C@@H]4CCCN4)c3C2)ncn1` [Compound Z331, (S)-(6-(3-methyl-1H-pyrrolo[2,3-b]pyridin-5-yl)-8-(pyrrolidin-2-yl)-3,4-dihydroisoquinolin-2(1H)-yl) (6-methylpyrimidin-4-yl)methanone], the IC50 against HPK1 [1] turned out to be 0.7 nM; against HPK1 [2], 174 nM.
As for `Cc1cc(N2CCc3cc(-c4cnc5[nH]cc(C)c5c4)cc([C@@H]4CCCN4)c3C2)cc(C)n1` [Compound Z343, (S)-2-(2,6-dimethylpyridin-4-yl)-6-(3-methyl-1H-pyrrolo[2,3-b]pyridin-5-yl)-8-(pyrrolidin-2-yl)-1,2,3,4-tetrahydroisoquinoline], the IC50 at HPK1 [1] amounted to 0.4 nM; against HPK1 [2], 177 nM.
Taken in the same sequence, the figures for `Cc1c[nH]c2ncc(-c3cc4c(c([C@@H]5CCCN5)c3)CN(C(=O)N3CCOC[C@H]3C)CC4)cc12` [Compound Z358-2, (6-(3-methyl-1H-pyrrolo[2,3-b]pyridin-5-yl)-8-((S)-pyrrolidin-2-yl)-3,4-dihydroisoquinolin-2(1H)-yl) ((R)-3-methylmorpholin)methanone] were 0.23 nM and 53.2 nM.
`Cc1c[nH]c2ncc(-c3cc4c(c([C@@H]5CCCN5)c3)CCN(C3CCOCC3)C4)cc12` [Compound Z401, (S)-7-(3-methyl-1H-pyrrolo[2,3-b]pyridin-5-yl)-5-(pyrrolidin-2-yl)-2-(tetrahydro-2H-pyran-4-yl)-1,2,3,4-tetrahydroisoquinoline]: the IC50 at HPK1 [1] is 3.19 nM; against HPK1 [2], 462 nM.
Take `Cc1c[nH]c2ncc(-c3cc4c(c([C@@H]5CCCN5)c3)CN(C(=O)c3cccnc3)CC4)cc12` [Compound Z210, (S)-1-(6-(3-methyl-1H-pyrrolo[2,3-b]pyridin-5-yl)-8-(pyrrolidin-2-yl)-3,4-dihydroisoquinolin-2(1H)-yl)(pyridin-3-yl)methanone]: the IC50 was 0.62 nM against HPK1 [1] and 227 nM against HPK1 [2].
For `Cc1[nH]c2ncc(-c3cc4c(c([C@@H]5CCCN5)c3)CN(C(=O)[C@](C)(O)C(F)(F)F)CC4)cc2c1C` [Compound Z414, (S)-1-(6-(2,3-dimethyl-1H-pyrrolo[2,3-b]pyridin-5-yl)-8-((S)-pyrrolidin-2-yl)-3,4-dihydroisoquinolin-2(1H)-yl)-3,3,3-trifluoro-2-hydroxy-2-methylpropan-1-one], the figures for the IC50 on HPK1 [1] and on HPK1 [2] were 20.6 nM and 2610 nM, respectively.
For `C[C@H](C#N)c1c[nH]c2ncc(-c3cc4c(c([C@@H]5CCCN5)c3)COCC4)cc12` (single isomer, unassigned) [Compound Z104-1] the same measures were 0.62 nM and 126 nM.
As to `Cc1c[nH]c2ncc(-c3cc4c(c([C@@H]5CCCN5)c3)CN(C(=O)c3cn(C(C)C)nc3C(F)(F)F)CC4)cc12` [Compound Z348, (S)-[1-isopropyl-3-(trifluoromethyl)-1H-pyrazol-4-yl]-[6-(3-methyl-1H-pyrrolo[2,3-b]pyridin-5-yl)-8-[pyrrolidin-2-yl]-3,4-dihydroisoquinolin-2(1H)-yl]methanone], the values for the IC50 on HPK1 [1] and against HPK1 [2] were 0.75 nM and 183 nM, respectively.
For `Cc1c[nH]c2ncc(-c3cc4c(c([C@@H]5CCCN5)c3)CN(C(=O)c3cnn(CC(F)F)c3)CC4)cc12` [Compound Z306, (S)-[1-(2,2-difluoroethyl)pyrazol-4-yl]-[6-(3-methyl-1H-pyrrolo[2,3-b]pyridin-5-yl)-8-[pyrrolidin-2-yl]-3,4-dihydro-1H-isoquinolin-2-yl]methanone] the same measures were 0.64 nM and 170 nM.
On to `CCN1Cc2c(cc(-c3cnc4[nH]cc(C)c4c3)cc2[C@@H]2CCCN2)NC1=O` [Compound Z256, (S)-3-ethyl-7-(3-methyl-1H-pyrrolo[2,3-b]pyridin-5-yl)-5-(pyrrolidin-2-yl)-3,4-dihydroquinazolin-2(1H)-one], for which the IC50 against HPK1 [1] was determined as 0.8 nM; against HPK1 [2], 279 nM.
Consider `Cc1c[nH]c2ncc(-c3cc4c(c([C@@H]5CCCN5)c3)CN(C(=O)C3CCOC3)CC4)cc12` (some centres unmarked) [Compound Z219], for which the results for the IC50 on HPK1 [1] and on HPK1 [2] were 0.66 nM and 257 nM, respectively.
`N#CCc1c[nH]c2ncc(-c3cc4c(c(C5CCCN5)c3)COCC4)cc12` (centres unmarked) [Compound Z101, 2-(5-(8-(pyrrolidin-2-yl)isochroman-6-yl)-1H-pyrrolo[2,3-b]pyridin-3-yl)acetonitrile]: the figures for the IC50 against HPK1 [1] and at HPK1 [2] were 0.49 nM and 163 nM, respectively.
Turning to `Cc1c[nH]c2ncc(-c3cc4c(c([C@@H]5CCCN5)c3)CN(C(=O)c3cnn(C5CC5)c3)CC4)cc12` [Compound Z319, (S)-(1-cyclopropyl-1H-pyrazol-4-yl)(6-(3-methyl-1H-pyrrolo[2,3-b]pyridin-5-yl)-8-(pyrrolidin-2-yl)-3,4-dihydroisoquinolin-2(1H)-yl)methanone], the figures for the IC50 on HPK1 [1] and on HPK1 [2] were 0.28 nM and 111 nM, respectively.
In the case of `Cc1cc(C(=O)N2Cc3cc(-c4cnc5[nH]cc(C)c5c4)cc([C@@H]4CCCN4)c3C2)cc(C)n1` [Compound Z262, (S)-(2,6-dimethylpyridin-4-yl)(6-(3-methyl-1H-pyrrolo[2,3-b]pyridin-5-yl)-4-(pyrrolidin-2-yl)isoindolin-2-yl)methanone hydrochloride], the IC50 at HPK1 [1] came out at 1.72 nM; at HPK1 [2], 627 nM.
Taken in the same sequence, the figures for `CC(=O)N1CCc2cc(-c3cnc4[nH]cc(C)c4c3)cc([C@@H]3CCCN3)c2C1` (single isomer, unassigned) [Compound Z98-2] were 0.5 nM and 152 nM.
For the molecule `Cc1c[nH]c2ncc(-c3cc4c(c([C@@H]5CCCN5)c3)CN(CC3(O)CCOCC3)CC4)cc12` [Compound Z437], the results for the IC50 against HPK1 [1] and against HPK1 [2] were 0.58 nM and 119 nM, respectively.
For the molecule `Cc1c[nH]c2ncc(-c3cc4c(c([C@@H]5CCCN5)c3)CN(C(=O)c3cnn(C(C)C)c3C(F)(F)F)CC4)cc12` [Compound Z438, (S)-[1-isopropyl-5-(trifluoromethyl)-1H-pyrazol-4-yl]-[6-(3-methyl-1H-pyrrolo[2,3-b]pyridin-5-yl)-8-[pyrrolidin-2-yl]-3,4-dihydroisoquinolin-2(1H)-yl]methanone], the IC50 against HPK1 [1] came to 1.13 nM; on HPK1 [2], 339 nM.
